Our source for the Normal melting temperature values is the NIST ThermoML archive (doi:10.1016/j.fluid.2018.11.001).

The structures appear in SMILES notation. ± gives the expanded uncertainty stated by the source.

For this data set the following is noted: Crystal; visual observation.

For `CCn1cc[n+](C)c1.Cc1ccc(S(=O)(=O)[O-])cc1` [1-ethyl-3-methylimidazolium 4-methylbenzenesulfonate], the Normal melting temperature turned out to be 54.2 ± 0.7 °C. As to `CCn1cc[n+](C)c1.[Br-]` [1-ethyl-3-methylimidazolium bromide], the Normal melting temperature was 77.1 ± 0.7 °C.
